Test results: paper PMC10053369, “Recombinant Analogs of Sea Anemone Kunitz-Type Peptides Influence P2X7 Receptor Activity in Neuro-2a Cells” (Marine Drugs, 2023)

Legend:
[1] = system: Neuro-2a cells; assay: Cytoprotection against ATP-induced cell death (MTT assay); format: cell-based, mouse
Method: (§1) Neuro-2a neuroblastoma cells (ATCC® CCL-131™) were obtained from American Type Culture Collection (Manassas, VA, USA). The cells were cultivated in DMEM medium (BioloT, St. Petersburg, Russia) supplemented with 10% of fetal bovine serum (BioloT, St. Petersburg, Russia) and 1% penicillin/streptomycin (BioloT, St. Petersburg, Russia) at 37 °C and 5% CO2. Initially, cells were incubated in cultural flasks until sub-confluent (~80%). For testing, Neuro-2a cells were seeded in 96-well plates and experiments were started after 24 h.
The cytoprotective effect of peptides was assessed in Neuro-2a cells using the MTT assay. In brief, an aliquot (180μL) of cell suspension with a nominal cell density of 3 × 10^4 cells/well was dispensed into 96-well plates. The cells were incubated for 24 h in a humidified atmosphere containing 5% CO2 to allow cell attachment. At the end of the preincubation period, ATP (Sigma-Aldrich, St. Louis, MO, USA) was added to the cells at a concentration of 4 mM. Studied peptides were added to the cells at concentrations of 0.1, 1.0 or 10.0 μM for 1h prior to the addition of ATP. After incubation for 48 h at 37 °C cell viability was detected using the MTT as described previously. The standard P2X7 inhibitor, A438079 (Sigma-Aldrich, St. Louis, MO, USA), at a concentration of 10 μM was used as a positive control.
(§2) All data were obtained in three independent replicates and calculated values were expressed as mean ± standard error of the mean (SEM). The Student’s t-test was performed using SigmaPlot 14.0 (Systat Software Inc., San Jose, CA, USA) to determine statistical significance.

[2] = system: P2X7 in Neuro-2a cells; assay: ATP-induced YO-PRO-1 uptake (P2X7 pore formation); format: cell-based, mouse
Method: as §1
Neuro-2a cells were seeded in 96 well plates at a density of 4 × 10^4 cells/well and incubated in DMEM for 24 h, 37 °C, 5% CO2. Then the cells were washed once with HBSS and filled with 180 μL of the same buffer. YO-PRO-1 (Sigma-Aldrich, St. Louis, MO, USA, 5 μM final concentration) was loaded into the wells, the cells were incubated for 15 min at 37 °C. Further, the studied peptides were added to the cells at concentrations of 10, 1, 0.1 and 0.01 μM and incubated for 10 min at 37 °C. After that ATP (4 mM final concentration) was added and the plates were incubated for an additional 10 min. The standard P2X7R inhibitor, A438079 (Sigma-Aldrich, St. Louis, MO, USA), was used as inhibitory control. Then the cells were washed three times with the buffer solution and fluorescence intensity was measured with PHERAstar FS plate reader (BMG, LABTECH, Ortenberg, Germany) at λex = 485 nm and λem= 520 nm in the “End Point” mode. The effectiveness of compounds was evaluated relative to control without ATP.
as §2

[3] = intrathecal; hind paw ipsilateral to the nerve injury; cited from earlier work
Excerpt: (§3) Activated P2X7 has also been reported to alter reactive oxygen species (ROS) in microglia/macrophages as was shown, for example, in primary rat microglial cells. In cultured neurons of the dorsal horn of the spinal ...

[4] = system: cultured neurons of the dorsal horn of the spinal cord; conditions: cited from earlier work
Excerpt: as §3

[5] = system: pancreatic ductal adenocarcinoma cells; conditions: ref [31]; cited from earlier work
[6] = system: spontaneously hypertensive rats; conditions: intracerebroventricular; ref [8]; cited from earlier work
Excerpt: as §3

[7] = system: P2X7 in Neuro-2a cells; assay: ATP-induced Ca2+ influx (Fluo-8 AM); format: cell-based, mouse; conditions: for reduction of calcium level: 30 min pre-incubation, 1 mM ATP
Method: as §1
Neuro-2a cells were seeded in 96-well plates at a density of 4 × 10^4 cells/well and incubated in DMEM for 24 h at 37 °C, 5% CO2. Then the cells were washed twice with culture medium and loaded with 5 μM Fluo-8 AM (Abcam, Cambridge, UK) dye and 1 μM Pluronic® F-127 (Sigma-Aldrich, St. Louis, MO, USA), and incubated for 40 min at 37 °C in HBSS: 140 mM NaCl, 5 mM KCl, 0.8 mM MgCl2, 2 mM CaCl2, 10 mM glucose, 10 mM HEPES, pH 7.4. Then the cells were washed two times with the same solution but without the fluorescent dye and treated with the studied peptides for 30 min at RT in the dark. In some experiments Ca^2+-free medium was used: 140 mM NaCl, 5 mM KCl, 0.8 mM MgCl2, 10 mM glucose, 10 mM HEPES, 5 mM EGTA, pH 7.4. ATP (1 mM final concentration) was added using a microinjector (20 μL/well) 10 s later the baseline recording and the readings were taken up to 50 s in 1 s intervals. The standard P2X7 inhibitor, A438079 (Sigma-Aldrich, St. Louis, MO, USA), was used as inhibitory control. Ionomycin (Sigma-Aldrich, St. Louis, MO, USA) and BHQ were used to generate a generic calcium signal in cells. 2,5,-di(t-butyl) hydroquinone (BHQ) was synthesized and kindly provided by Dr. Polonik S.N. (PIBOC FEBRAS). Fluo-8 was excited at 485 nm, and the emission at 520 nm was measured with a PHERAstar®FS plate reader (BMG LABTECH, Ortenberg, Germany). The data were processed by MARS Data Analysis v. 3.01R2 (BMG Labtech, Ortenberg, Germany). Mean values and standard error of peak height calcium were calculated.
as §2

[8] = ref [14],[17],[18],[21],[38],[39],[40], cited from earlier work
Excerpt: (§4) The studied peptides are analogs of sea anemone Kunitz-type peptides and attract our attention due to their wide spectrum of biological activity and ability to interact with important molecular targets.

[9] = target: TRPV1 receptor; conditions: modulator of TRPV1, depends on nature and strength of activation stimuli; ref [14],[17],[18],[21],[38],[39],[40]; cited from earlier work
Excerpt: as §4

## Clc1cccc(-c2nnnn2Cc2cccnc2)c1Cl [A438079, reference compound]
[1]; pre-incubation with 10 μM A438079, then 4 mM ATP, 48 h, mean ± SE, n = 3
  increase in cell viability compared with ATP alone: 18.2 ± 2.8%
[2]; 10 μM A438079 pre-incubation, 4 mM ATP, mean ± SE, n = 3
  inhibition of YO-PRO-1 dye penetration vs ATP alone: up to 32%
[2]; 0.01–10 μM peptides or 10 μM A438079, 10 min pre-incubation, 4 mM ATP
  ATP-induced uptake of YO-PRO-1: attenuated dye accumulation
[3]
  mechanical hypersensitivity: suppressed the development of mechanical hypersensitivity
[4]
  ATP or Bz-ATP-induced ROS production: eliminated
[5]
  ATP-induced pore formation and cell death: very modest effects on ATP-induced pore formation and cell death

## Cc1nc(N=Nc2ccc(S(=O)(=O)O)cc2S(=O)(=O)O)c(COP(=O)(O)O)c(C=O)c1O [PPADS]
[6]
  infarct volume and number of irreversibly damaged cells: reduced infarct volume and the number of irreversibly damaged cells

## APHC3: recombinant Kunitz-type peptide from H. magnifica (=H. crispa), UniProtKB C0HJF3 (GSICLEPKVVGPCTAYFPRFYFNSETGKCTPFIYGGCEGNGNNFETLRACRGICRA; left off: thioredoxin, end not stated, cleaved)
[1]; long-time application of ATP (4 mM, 48 h)
  protection from ATP-induced death: partially protected neuroblastoma cells from ATP-induced death
[7]; 0.1 μM peptide, mean ± SE, n = 3
  reduction of calcium level: 53.2 ± 24.95%
[7]; 0.1–10 μM peptide
  reduction of calcium level: significantly reduced the calcium level
[7]; short-term effect
  effect on Ca2+ influx (summary in discussion): a significant effect on Ca^2+ influx into cells
[2]; short-term effect
  entry of YO-PRO-1 into cells (summary in discussion): regulating the entry of low molecular weight fluorescent dye YO-PRO-1 into cells
[8]; ex vivo and in vivo
  activity in models of inflammatory diseases: potent activity
[8]
  anti-inflammatory and analgesic activity: significant anti-inflammatory and analgesic activity
[9]
  EC50: ~18 nM
